Experimental data as given in patent publication US20260275281A1, “COMPOSITIONS AND METHODS FOR DIFFERENTIATING RPE CELLS” (STEMCELL TECHNOLOGIES CANADA INC., priority 2023, published 2026).

Test system: H9-derived RPE cells
Conditions: increasing concentrations 10 μM, 25 µM and 50 μM in maturation medium, versus unsupplemented medium
Method: RPE pigmentation levels of cells at different stages of differentiation, but usually day 49 mature (d) RPE, could be analysed by a melanin content assay. […] A total of 4×10^5 RPE were added per well of a 96 well u bottom plate and centrifuged at 500×g for 3 minutes. Once the supernatant was removed, cells were resuspended in 100 μL of D-PBS and transferred to a 96 well tissue culture plate. RPE were centrifuged at 300×g for 3 minutes and absorbance was measured at 490 nm. Melanin content was calculated relative to the synthetic standard.

For ferric ammonium citrate, which “melanogenesis (brightfield microscopy and melanin content assay)” value is on record?
Its value is “increasing levels of melanogenesis”.
